{"source": "paper PMC9457730", "about": "“Ajuforrestin A, an Abietane Diterpenoid from Ajuga ovalifolia var. calanthe, Induces A549 Cell Apoptosis by Targeting SHP2” (Molecules, 2022)", "key": {"SHP1": {"biological_target": "T1, SHP1 (Homo sapiens, UniProt P29350)", "T1 construct": "GST; made in house; host or cells: Escherichia coli BL21", "T1 sequence (P29350 whole entry)": "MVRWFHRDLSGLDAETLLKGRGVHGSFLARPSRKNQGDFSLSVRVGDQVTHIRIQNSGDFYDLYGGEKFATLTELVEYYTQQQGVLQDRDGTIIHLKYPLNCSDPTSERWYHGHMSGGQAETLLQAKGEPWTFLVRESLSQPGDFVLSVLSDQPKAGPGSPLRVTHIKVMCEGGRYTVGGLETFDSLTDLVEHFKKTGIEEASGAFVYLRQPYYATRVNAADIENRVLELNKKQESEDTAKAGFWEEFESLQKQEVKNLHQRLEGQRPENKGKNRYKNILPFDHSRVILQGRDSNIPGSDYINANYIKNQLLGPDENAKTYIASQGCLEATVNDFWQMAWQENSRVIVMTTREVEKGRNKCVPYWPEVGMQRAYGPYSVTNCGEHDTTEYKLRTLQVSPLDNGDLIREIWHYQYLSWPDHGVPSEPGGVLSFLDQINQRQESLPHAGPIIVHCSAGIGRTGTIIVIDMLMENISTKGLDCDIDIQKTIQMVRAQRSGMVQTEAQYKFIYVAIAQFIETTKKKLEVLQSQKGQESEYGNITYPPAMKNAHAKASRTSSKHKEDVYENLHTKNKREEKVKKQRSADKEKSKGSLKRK", "assay": "SHP1 catalytic activity in vitro (DiFMUP substrate)", "assay_type": "biochemical", "conditions": "for inhibitory effect on SHP1 catalytic activity: at high concentrations", "procedure": "(§1) Escherichia coli BL21 was used to express SHP1 and SHP2 protein and proteins were purified with GST tag. In total, 15 nM SHP1 or SHP2 purified protein, a test compound (10 μM) or DMSO and reaction buffer in 100 μL constitute the reaction system. DiFMUP (10 μM) was added to the reaction system to initiate the reaction. The inhibitory effects of compounds 1–3 were detected by Varioskan Lux with 355 nm excitation and 460 nm emission wavelengths."}, "SHP2 [1]": {"biological_target": "T2, SHP2 (Homo sapiens, UniProt Q06124)", "T2 sequence (Q06124 1-593)": "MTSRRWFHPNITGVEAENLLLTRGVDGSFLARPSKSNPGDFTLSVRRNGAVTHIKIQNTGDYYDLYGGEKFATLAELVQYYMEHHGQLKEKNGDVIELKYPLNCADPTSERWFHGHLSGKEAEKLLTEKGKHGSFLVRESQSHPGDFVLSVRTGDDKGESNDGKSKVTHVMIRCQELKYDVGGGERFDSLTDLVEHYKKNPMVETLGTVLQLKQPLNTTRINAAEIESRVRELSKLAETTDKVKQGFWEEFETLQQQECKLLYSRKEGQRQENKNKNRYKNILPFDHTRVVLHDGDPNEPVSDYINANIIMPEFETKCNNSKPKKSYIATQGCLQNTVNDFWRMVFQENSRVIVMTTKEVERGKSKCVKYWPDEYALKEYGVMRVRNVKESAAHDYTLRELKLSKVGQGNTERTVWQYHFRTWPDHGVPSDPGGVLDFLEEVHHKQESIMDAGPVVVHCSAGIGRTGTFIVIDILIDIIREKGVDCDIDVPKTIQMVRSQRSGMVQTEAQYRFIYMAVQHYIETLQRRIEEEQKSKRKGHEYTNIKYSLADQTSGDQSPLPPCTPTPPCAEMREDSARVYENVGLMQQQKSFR", "assay": "SHP2 catalytic activity in vitro (DiFMUP substrate)", "assay_type": "biochemical", "parameters": "GST; made in house; host or cells: Escherichia coli BL21", "conditions": "15 nM purified SHP2, DiFMUP 10 μM", "procedure": "as §1"}, "A549 cells [2]": {"test_system": "A549 cells", "assay": "Apoptosis flow cytometry (Annexin V-FITC/PI)", "assay_type": "cell-based, Human", "conditions": "A549, 72 h", "procedure": "After 72 h treatment with different concentrations of compound 2, A549 cells were collected and rinsed three times with PBS. A 195 μL Annexin V-FITC buffer, 5 μL Annexin V-FITC, and 10 μL PI were sequentially added to each sample. The apoptotic cells were detected and analyzed by flow cytometry (ACEA NovoCyte, Hangzhou, China)."}, "A549 cells [3]": {"test_system": "A549 cells", "assay": "A549 cell invasion assay (matrigel)", "assay_type": "cell-based, Human", "conditions": "24 h incubation", "procedure": "The inner chamber was pre-coated with matrigel. Cells were seeded in the inner chamber with FBS-free medium, and DMEM medium with 5% FBS was added to the outer chamber. After a 24 h treatment with compound 2, 4% paraformaldehyde was used to fix the cells and 0.1% crystal violet was used to stain A549 cells."}, "[4]": {"test_system": "p-ERK1/2, PI3K-AKT and STAT3 signaling pathways", "assay": "Western blot of ERK, AKT, STAT3 signaling pathway", "assay_type": "cell-based, Human", "conditions": "A549, 72 h", "procedure": "(§2) After compound 2 treatment, RIPA buffer was used to lyse cells’ protein. Equal sample proteins were added in SDS-PAGE, separated with 100 V in 60 min, then transferred into PVDF membranes, and the membranes incubated with corresponding primary antibodies (Huabio, Hangzhou, China). GAPDH or Tubulin served as normal control."}, "[5]": {"test_system": "cleaved caspase-3, 8, 9 and cleaved-PARP", "assay": "Western blot of apoptosis-related signaling pathway", "assay_type": "cell-based, Human", "conditions": "A549, 72 h", "procedure": "as §2"}, "SHP2 [6]": {"biological_target": "T2, SHP2", "assay": "Cellular thermal shift assay (CETSA)", "assay_type": "binding", "parameters": "endogenous in cells; host or cells: A549", "conditions": "A549 cell supernatant", "procedure": "A total of 549 cells in 12 cm dish were collected and washed with PBS three times. After three rounds of liquid nitrogen-thaw and centrifugation at 13,000× g for 10 min at 4 °C, the cell supernatant was collected. The cell supernatant was divided into two aliquots of 50 μL each. Compound 2 or DMSO was added to each sample. The sample was heated from 50 °C to 62 °C, then cooled for 3 min [33]. Finally, all samples were processed under 4.7."}, "A549 cells [7]": {"test_system": "A549 cells", "assay": "Cell viability assay (CCK-8)", "assay_type": "cell-based, Human"}, "A549 cells [8]": {"test_system": "A549 cells", "assay": "A549 cell wound-healing assay", "assay_type": "cell-based, Human", "conditions": "up to 72 h", "procedure": "When the A549 cell covered 80% of cell culture dish, these cells were seeded in 6-well plates at 5 × 10^5 cells/well, respectively. After the cells adhered to the plates, wound formation was performed by 200 μL pipette tips. Then, A549 cells were treated with different concentrations of compound 2 for 72 h. The image of each gap was obtained by Leica TCS SP8 (Leica, Wetzlar, Germany) at 0, 24, 72 h, respectively."}, "caspase-3": {"test_system": "caspase-3", "assay": "Caspase-3 activity assay (Ac-DEVD-AFC)", "assay_type": "cell-based, Human", "conditions": "A549, 72 h", "procedure": "Ac-DEVD-AFC, a caspase-3 fluorimetric substrate, was used to detect caspase-3 activity. After 72 h treatment with compound 2, cell supernatants were collected. The 20 μL cell supernatants, 100 μM Ac-DEVD-AFC, and reaction buffer constituted the 100 μL reaction system, and was then incubated at 37 °C for another 1 h. Caspase-3 activity was detected by Varioskan Lux with 405 nm excitation and 510 nm emission wavelengths."}, "SHP2 [9]": {"test_system": "SHP2", "assay": "Western blot of cellular SHP2 / p-SHP2 expression", "assay_type": "cell-based, Human", "conditions": "A549, 72 h", "procedure": "as §2"}}}
{"smiles": "CC1=C(C)C2=CC(=O)C3=C(C(=O)c4oc(C)cc4C3=O)[C@@]2(C)CC1", "note": "[Compound 1, 12, 16-epoxy-17(15→16), 18(4→3)-diabeo-abieta-3,5,8, 12, 15-pentaene-7, 11, 14-trione]", "values": [{"measurement": "inhibitory effect on SHP1 catalytic activity", "setting": "SHP1", "value": "inhibited SHP1 catalytic activity at high concentrations"}, {"measurement": "IC50", "setting": "SHP2 [1]", "value": "26 ± 1.41", "unit": "µM"}]}
{"smiles": "CC1=C(C)C2=CC(=O)c3c(c(O)c4occ(C)c4c3O)[C@@]2(C)CC1", "note": "[Compound 2, Ajuforrestin A]", "values": [{"measurement": "apoptotic cells", "setting": "A549 cells [2]", "value": "obvious increase in apoptotic cells"}, {"measurement": "inhibitory effect on SHP1", "setting": "SHP1; below 20 μM", "value": "no inhibitory effects"}, {"measurement": "A549 cell invasion ability", "setting": "A549 cells [3]", "value": "obviously decreased"}, {"measurement": "p-ERK1/2 expression", "setting": "[4]", "value": "markedly inhibited p-ERK1/2 expression"}, {"measurement": "PI3K-AKT and STAT3 signaling pathways", "setting": "[4]; various concentrations", "value": "obviously inhibited"}, {"measurement": "IC50", "setting": "SHP2 [1]", "value": "7.01 ± 0.85", "unit": "µM"}, {"measurement": "cleaved-PARP", "setting": "[5]", "value": "activated"}, {"measurement": "cleaved caspase-3, 8, 9", "setting": "[5]; various doses", "value": "up-regulated"}, {"measurement": "SHP2 stability with increasing concentration (CETSA)", "setting": "SHP2 [6]", "value": "raised SHP2 stability"}, {"measurement": "SHP2 thermal stability (CETSA)", "setting": "SHP2 [6]; 50 °C to 62 °C", "value": "decrease in SHP2 expression with increasing temperature was suppressed"}, {"measurement": "A549 cell viability", "setting": "A549 cells [7]; 24 h treatment", "value": "did not affect A549 cell viability"}, {"measurement": "IC50", "setting": "A549 cells [7]; Homo sapiens, A549, CCK-8, 72 h, read-out: IC50 A549 cell proliferation", "value": "8.68 ± 0.96", "unit": "µM"}, {"measurement": "A549 cell migration", "setting": "A549 cells [8]", "value": "significantly restrained A549 cell migration"}, {"measurement": "caspase-3 expression", "setting": "caspase-3", "value": "significant rise in caspase-3 expression in a dose-dependent manner"}, {"measurement": "cellular SHP2 expression", "setting": "SHP2 [9]", "value": "suppressed SHP2 expression in a dose-dependent manner"}, {"measurement": "expression of SHP2 and phosphorylation of SHP2", "setting": "SHP2 [9]", "value": "down-regulated"}]}
{"smiles": "CC1=C(C)C2=CC(=O)c3c(O)c4c(c(O)c3[C@@]2(C)CC1=O)OC[C@H]4C", "note": "[Compound 3, Ajudecumin A]", "values": [{"measurement": "inhibitory effect on SHP1 catalytic activity", "setting": "SHP1", "value": "inhibited SHP1 catalytic activity at high concentrations"}, {"measurement": "IC50", "setting": "SHP2 [1]", "value": "20 ± 1.31", "unit": "µM"}]}
